Measured values reported in the supplement of paper PMC10307832.

Legend:
Assay in all cases: relative viability (nuclei count vs DMSO), 5 days (fraction); higher = more cells survive
[1] = compound: C1=CC2=C(C=C(C(=C2N=C1)O)N=NC3=CC4=C(C=C3)C=C(C=C4)S(=O)(=O)O)S(=O)(=O)O + COc1cccc2cc(-c3nc([C@H]4CC[C@H](C(=O)O)CC4)n4ncnc(N)c34)[nH]c12 [OSI-027] (partner 0.5 µM)
Method in brief: (§1)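 Nuclei were stained with Hoechst during a one-step fixation (final 0.05% Triton X-100, 1% formaldehyde, 1 ug/ml Hoechst) carried out 5 days after dosing, then counted on 4× images. The cells, lung cancer lines in 1536-well plates, had been dosed by pin tool the day after seeding with one drug alone or a fixed anchor-drug dose plus five library-drug doses (not always all listed) in √10 steps. Relative viability is the nuclei count in treated wells divided by that in vehicle wells, and each value is the median of duplicate plates.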

AT-7519 + Lapatinib = compound: O=C(NC1CCNCC1)c1n[nH]cc1NC(=O)c1c(Cl)cccc1Cl [AT-7519] + CS(=O)(=O)CCNCc1ccc(-c2ccc3ncnc(Nc4ccc(OCc5cccc(F)c5)c(Cl)c4)c3c2)o1 [Lapatinib] (partner 2 µM)
Method in brief: as §1

AT-7519 + Dasatinib = compound: O=C(NC1CCNCC1)c1n[nH]cc1NC(=O)c1c(Cl)cccc1Cl [AT-7519] + Cc1nc(Nc2ncc(C(=O)Nc3c(C)cccc3Cl)s2)cc(N2CCN(CCO)CC2)n1 [Dasatinib] (partner 0.075 µM)
Method in brief: as §1

[2] = compound: C1=CC2=C(C=C(C(=C2N=C1)O)N=NC3=CC4=C(C=C3)C=C(C=C4)S(=O)(=O)O)S(=O)(=O)O + CS(=O)(=O)N1CCN(Cc2cc3nc(-c4cccc5[nH]ncc45)nc(N4CCOCC4)c3s2)CC1 [Pictilisib] (partner 1 µM)
Method in brief: as §1

Row | Cell Line | relative viability ([1]; first compound 0.08 µM) | relative viability ([1]; first compound 0.253 µM) | relative viability ([1]; first compound 0.8 µM) | relative viability ([1]; first compound 2.53 µM) | relative viability ([1]; first compound 8 µM) | relative viability (AT-7519 + Lapatinib; first compound 0.01 µM) | relative viability (AT-7519 + Lapatinib; first compound 0.03162 µM) | relative viability (AT-7519 + Lapatinib; first compound 0.3162 µM) | relative viability (AT-7519 + Lapatinib; first compound 1 µM) | relative viability (AT-7519 + Dasatinib; first compound 0.01 µM) | relative viability (AT-7519 + Dasatinib; first compound 0.03162 µM) | relative viability (AT-7519 + Dasatinib; first compound 0.3162 µM) | relative viability (AT-7519 + Dasatinib; first compound 1 µM) | relative viability ([2]; first compound 0.08 µM) | relative viability ([2]; first compound 0.253 µM) | relative viability ([2]; first compound 0.8 µM) | relative viability ([2]; first compound 2.53 µM) | relative viability ([2]; first compound 8 µM)
1 | NCI-H1944 | 0.411 | 0.423 | 0.414 | 0.415 | 0.425 | 0.807 | 0.775 | 0.84 | 0.864 | 0.205 | 0.198 | 0.215 | 0.124 | 0.333 | 0.348 | 0.327 | 0.345 | 0.332
2 | NCI-H1793 | 0.285 | 0.289 | 0.246 | 0.264 | 0.314 | 0.554 | 0.713 | 0.421 | 0.226 | 0.319 | 0.361 | 0.407 | 0.247 | 0.313 | 0.323 |  | 0.291 | 0.369
3 | NCI-H520 | 0.215 | 0.219 | 0.201 | 0.274 | 0.22 | 0.922 | 0.638 | 0.587 | 0.283 | 0.244 | 0.241 | 0.174 | 0.166 | 0.298 | 0.282 | 0.332 | 0.26 | 0.269
4 | NCI-H460 | 0.777 | 0.71 | 0.654 | 0.647 | 0.576 | 1.71 | 0.877 | 0.0532 | 0.013 | 0.545 | 0.558 | 0.438 | 0.243 | 0.356 | 0.366 | 0.336 | 0.344 | 0.104
5 | EKVX | 0.691 | 0.682 | 0.684 | 0.721 | 0.539 | 0.203 | 0.198 | 0.186 | 0.172 | 0.526 | 0.388 | 0.346 | 0.449 | 0.419 | 0.45 | 0.438 | 0.413 | 0.399
6 | NCI-H358 | 0.94 | 0.738 | 0.746 | 0.772 | 0.847 | 0.406 | 0.447 | 0.335 | 0.198 | 0.15 | 0.163 | 0.161 | 0.119 | 0.37 | 0.35 | 0.323 | 0.356 | 0.363
7 | EPLC-272H | 0.298 | 0.258 | 0.258 | 0.283 | 0.294 | 0.979 | 0.913 | 0.652 | 1.07 | 0.325 | 0.339 | 0.382 | 0.248 | 0.354 | 0.321 | 0.291 | 0.312 | 0.104
8 | NCI-H1563 | 0.786 | 0.732 | 0.818 | 0.77 | 0.727 | 0.923 | 0.971 | 1.07 | 1.01 | 0.467 | 0.418 | 0.435 | 0.434 | 0.623 | 0.638 | 0.653 | 0.626 | 0.701
9 | NCI-H1395 | 0.639 | 0.663 | 0.631 | 0.632 | 0.657 | 1.03 | 1.14 | 0.802 | 0.602 | 0.418 | 0.377 | 0.408 | 0.413 | 0.667 | 0.607 | 0.578 | 0.575 | 0.602
10 | NCI-H2126 | 0.723 | 0.662 | 0.588 | 0.658 | 0.632 | 0.804 | 0.752 | 0.683 | 0.857 | 0.658 | 0.626 | 0.497 | 0.357 | 0.505 | 0.518 | 0.506 | 0.522 | 0.523
11 | LXF-289 | 0.84 | 0.733 | 0.745 | 0.809 | 0.788 | 0.929 | 0.902 | 0.953 | 0.912 | 0.219 | 0.232 | 0.222 | 0.235 | 0.874 | 0.684 | 0.73 | 0.793 | 0.8
12 | NCI-H2009 | 0.574 | 0.6 | 0.645 | 0.642 | 0.71 | 1.09 | 0.825 | 0.66 | 0.277 | 0.282 | 0.279 | 0.234 | 0.157 | 0.789 | 0.82 | 0.757 | 0.747 | 0.761
13 | NCI-H2405 | 0.649 | 0.599 | 0.602 | 0.644 | 0.6 | 1.04 | 1.04 | 1.03 | 0.719 | 0.203 | 0.216 | 0.199 | 0.219 | 0.496 | 0.432 | 0.33 | 0.418 | 0.28
14 | NCI-H1755 | 0.705 | 0.74 | 0.786 | 0.689 | 0.703 | 1.02 | 1.03 | 0.948 | 1.11 | 0.465 | 0.404 | 0.465 | 0.409 | 0.407 | 0.44 | 0.446 | 0.47 | 0.246
15 | HCC-78 | 0.436 | 0.368 | 0.417 | 0.346 | 0.348 | 0.837 | 0.79 | 1.08 | 0.878 | 0.368 | 0.397 | 0.335 | 0.364 | 0.206 | 0.178 | 0.221 | 0.219 | 0.118
16 | LOU-NH91 | 0.736 | 0.751 | 0.713 | 0.668 | 0.733 | 0.786 | 0.736 | 0.795 | 0.673 | 0.613 | 0.6 | 0.604 | 0.511 | 0.57 | 0.523 | 0.539 | 0.486 | 0.524
17 | NCI-H3122 | 1.09 | 0.919 | 0.899 | 0.856 | 0.922 | 1.02 | 0.986 | 1.08 | 0.701 | 0.917 | 0.805 | 0.809 | 0.354 | 0.629 | 0.552 | 0.555 | 0.616 | 0.638
